# Earlier results as cited in article PMC7395068, “The evolution of strategies to minimise the risk of human drug-induced liver injury (DILI) in drug discovery and development” (Archives of Toxicology, 2020).
# Where two headings read alike, the source gives them in different places.
# Experiments:
# [1] = cited from earlier work
# [2] = test system: HepG2 cells; conditions: cited from earlier work
# [3] = cited from earlier work; remark: listed apart in the source
# [4] = test system: THLE or HepG2 cells, isolated mitochondria, BSEP; conditions: cited from earlier work
# [5] = test system: HepG2 cells; conditions: cited from earlier work; remark: listed apart in the source
# [6] = test system: isolated mouse liver mitochondria; conditions: cited from earlier work
# [7] = test system: human hepatocytes; conditions: cited from earlier work
# [8] = assignment in O'Brien 2006, ref O'Brien 2006
# [9] = In vitro Assay, ref O'Brien 2006
# [10] = In vitro Assay, ref Persson 2013
structure (smiles),measurement,setting,value
CCN(CC)CCNC(=O)c1cc(Cl)c(N)cc1OC [metoclopramide],"DILI +VE (5-8), DILI -VE (-4)",[1]; in vivo,+VE
same,DILI severity category,[1]; in vivo,vLess-DILI-Concern
same,Structural based (HCI),[2],-VE
CC[C@H](C)C(=O)O[C@H]1CCC=C2C=C[C@H](C)[C@H](CC[C@@H]3C[C@@H](O)CC(=O)O3)[C@H]21 [mevastatin],"Structural based (HCI), In vitro Assay","[2]; HepG2 HCI, ref O'Brien 2006",-VE
same,In vivo DILI,[3]; [8],-VE
O=C(O)c1cccnc1 [niacin],Structural based (HCI),[2]; [9],-VE
same,Partition Hybrid HRM Score,"[4]; In vitro Assay, ref Aleo 2019",+VE
same,Ro2 Hybrid HRM Score,"[4]; In vitro Assay, ref Aleo 2019",-VE
CN1CCC[C@H]1c1cccnc1 [nicotine],Cluser analysis,[5],-VE
same,In vivo DILI,[3]; in vivo,-VE
same,in vitro data EC20<=2uM,[6],-VE
COC(=O)Nc1nc2ccc(C(=O)c3cccs3)cc2[nH]1 [nocodazole],Structural based (HCI),[2]; [9],+VE (lowest HCI endpoint IC50 (or in the absence of dose–response < 100 µM) < 30 × total human plasma exposure levels (Cmax.tot))
same,Structural based (HCI),"[7]; In vitro Assay, ref Xu 2008",-VE
same,In vivo DILI,[3]; ref O'Brien 2006,-VE
same,In vivo DILI,[3]; ref Xu 2008,-VE
CCn1cc(C(=O)O)c(=O)c2cc(F)c(N3CCNCC3)cc21 [norfloxacin],"DILI +VE (5-8), DILI -VE (-4)",[1]; ref Chen 2016,+VE
same,DILI severity category,[1]; ref Chen 2016,vLess-DILI-Concern
same,Structural based (HCI),[2]; [9],+VE (lowest HCI endpoint IC50 (or in the absence of dose–response < 100 µM) < 30 × total human plasma exposure levels (Cmax.tot))
same,In vivo DILI,[3]; ref O'Brien 2006,+VE
CCCN1C[C@H](CSC)C[C@@H]2c3cccc4[nH]cc(c34)C[C@H]21 [pergolide],"DILI +VE (5-8), DILI -VE (-4)",[1]; ref Chen 2016,-VE
same,DILI severity category,[1]; ref Chen 2016,Ambiguous DILI-concern
same,Cluser analysis,[5]; [10],-VE
same,Structural based (HCI),[5]; [10],-VE
same,In vivo DILI,[3]; ref Persson 2013,-VE
CCC1(c2ccccc2)C(=O)NCNC1=O [primidone],"DILI +VE (5-8), DILI -VE (-4)",[1]; in vivo,-VE
same,Structural based (HCI),[2],+VE
CCCc1cc(=O)[nH]c(=S)[nH]1 [propylthiouracil],"DILI +VE (5-8), DILI -VE (-4)",[1]; in vivo,+VE
same,DILI severity category,[1]; in vivo,vMost-DILI-Concern
same,Cluser analysis,[5],-VE
same,Structural based (HCI),[5],-VE
same,in vitro data EC2<=1x Cmax,"[6]; In vitro Assay, ref Porceddu 2012",+VE
CCCc1cc(=O)[nH]c(=S)[nH]1 [propythiouracil],"Structural based (HCI), In vitro Assay","[2]; HepG2 HCI, ref O'Brien 2006",+VE
[Cl-].[Na+] [sodium chloride],"Structural based (HCI), In vitro Assay",[2],+VE
same,In vivo DILI,[3]; in vivo,-VE
CN(N=O)C(=O)N[C@@H](C=O)[C@@H](O)[C@H](O)[C@H](O)CO [streptozocin],"DILI +VE (5-8), DILI -VE (-4)",[1]; ref Chen 2016,-VE
same,DILI severity category,[1]; ref Chen 2016,Ambiguous DILI-concern
same,Structural based (HCI),[2]; [9],-VE
same,In vivo DILI,[3]; ref O'Brien 2006,-VE
Nc1ccc(S(=O)(=O)NC(=O)c2ccccc2)cc1 [sulfabenzamide],"Structural based (HCI), In vitro Assay","[2]; HepG2 HCI, ref O'Brien 2006",-VE
same,In vivo DILI,[3]; [8],-VE
Nc1ccc(S(=O)(=O)Nc2ccnn2-c2ccccc2)cc1 [sulfaphenazole],Structural based (HCI),[2]; [9],+VE (lowest HCI endpoint IC50 (or in the absence of dose–response < 100 µM) < 30 × total human plasma exposure levels (Cmax.tot))
same,In vivo DILI,[3]; […],-VE
same,In vivo DILI,[3]; ref O'Brien 2006,+VE
Cc1scc2c1N(C(=O)CN1CCN(C)CC1)c1ccccc1NC2=O [telenzipine],"Structural based (HCI), In vitro Assay","[2]; HepG2 HCI, ref O'Brien 2006",-VE
same,In vivo DILI,[3]; [8],-VE
Cc1ccc(S(=O)(=O)NC(=O)NN2CCCCCC2)cc1 [tolazamide],"DILI +VE (5-8), DILI -VE (-4)",[1]; ref Chen 2016,+VE
same,DILI severity category,[1]; ref Chen 2016,vLess-DILI-Concern
same,Structural based (HCI),[2]; [9],+VE (lowest HCI endpoint IC50 (or in the absence of dose–response < 100 µM) < 30 × total human plasma exposure levels (Cmax.tot))
same,In vivo DILI,[3]; ref O'Brien 2006,+VE
CN[C@H](CC(C)C)C(=O)N[C@H]1C(=O)N[C@@H](CC(N)=O)C(=O)N[C@H]2C(=O)N[C@H]3C(=O)N[C@H](C(=O)N[C@H](C(=O)O)c4cc(O)cc(O)c4-c4cc3ccc4O)[C@H](O)c3ccc(c(Cl)c3)Oc3cc2cc(c3O[C@@H]2O[C@H](CO)[C@@H](O)[C@H](O)[C@H]2O[C@H]2C[C@](C)(N)[C@H](O)[C@H](C)O2)Oc2ccc(cc2Cl)[C@H]1O [vancomycin],"DILI +VE (5-8), DILI -VE (-4)",[1]; in vivo,+VE
same,DILI severity category,[1]; in vivo,vLess-DILI-Concern
same,Cluser analysis,[5],-VE
same,Structural based (HCI),[7],+VE
same,Partition Hybrid HRM Score,[4],+VE
same,Ro2 Hybrid HRM Score,[4],-VE
CC[C@]12CCCN3CCc4c(n(c5ccccc45)[C@@](O)(C(=O)OC)C1)[C@@H]32 [vincamine],"Structural based (HCI), In vitro Assay","[2]; HepG2 HCI, ref O'Brien 2006",+VE
same,In vivo DILI,[3]; [8],-VE
NS(=O)(=O)Cc1noc2ccccc12 [zonisamide],"DILI +VE (5-8), DILI -VE (-4)",[1]; ref Chen 2016,+VE
same,DILI severity category,[1]; ref Chen 2016,vLess-DILI-Concern
same,Structural based (HCI),[2]; [9],+VE (lowest HCI endpoint IC50 (or in the absence of dose–response < 100 µM) < 30 × total human plasma exposure levels (Cmax.tot))
same,In vivo DILI,[3]; ref O'Brien 2006,-VE
